Source: patent EP4523682A1, “PROCESS TO COMPLEX OLEANOLIC ACID WITH CYCLODEXTRINS AND PRODUCTS OBTAINED THEREOF” (FUNDACION UNIVERSITARIA SAN ANTONIO (UCAM), priority 2023, dated 2025)

Tests used:
[1] = system: focal adhesions (FAs) revealed by Paxillin; assay: Cell-front migration assay, focal adhesions by paxillin immunostaining; format: cell-based, Mink; settings: 6 and 12 hours; 12.5/3.12 µM/mM OA/HP-β-CD; 5 µM OA/DMSO; versus basal and vehicle control
Experimental: Mv1Lu cells are grown until they reach confluence on round glass-coverslips in 10% FBS-EMEM medium. At this time, cells are washed and a 24h serum-starvation period is set by replacing the medium with FBS-free EMEM. After this, the epithelium is scratched using a razor blade, which produces an artificial wound with enough space to allow cells to migrate. […] After the selected times of incubation, glass-coverslips are fixed with 4% formaldehyde (Applichem GmbH, Darmstadt, Germany) in PBS (Biowest, Nuaillé, France) for 10 minutes and washed twice with PBS. After this, cells are permeabilized with 0,3% Triton X-100 (Sigma-Aldrich, St Louis, MO, USA) in PBS for 10 minutes. For immunostaining, a blocking is performed for 30 minutes at room temperature in PBS solution with 10% FBS, 5% skim milk (Beckton Dickinson, Franklin Lakes, NJ, USA), 0,3% bovine serum albumin (BSA, Sigma-Aldrich, St Louis, MO, USA) and 0,1% Triton X-100. Then, cells are incubated 1 hour at room temperature with anti-paxillin or anti-phospho-c-Jun antibodies, diluted in blocking solution without skim milk. […] Briefly, focal adhesions are quantified from paxillin stained acquired pictures. […] Then, the number of FAs are calculated in each filopodia by using the previously mentioned macros. […] In parallel, the size of each FA is measured using the macros mentioned above. Finally, FA average size is calculated for each treatment.

[2] = system: c-Jun active phosphorylated form (p-c-Jun); assay: Cell-front migration assay, p-c-Jun immunostaining; format: cell-based, Mink; settings: 12.5/3.12 µM/mM OA/HP-β-CD, 5 µM OA/DMSO
Experimental: Mv1Lu cells are grown until they reach confluence on round glass-coverslips in 10% FBS-EMEM medium. At this time, cells are washed and a 24h serum-starvation period is set by replacing the medium with FBS-free EMEM. After this, the epithelium is scratched using a razor blade, which produces an artificial wound with enough space to allow cells to migrate. […] After the selected times of incubation, glass-coverslips are fixed with 4% formaldehyde (Applichem GmbH, Darmstadt, Germany) in PBS (Biowest, Nuaillé, France) for 10 minutes and washed twice with PBS. After this, cells are permeabilized with 0,3% Triton X-100 (Sigma-Aldrich, St Louis, MO, USA) in PBS for 10 minutes. […] In order to quantify phospho-c-Jun levels in immunofluorescence pictures, images are analyzed and quantified by Image J software. […] Within each sector, the quantified signal of each nucleus is used as a replicate to obtain p-c-Jun intensity data in each of the conditions performed. For a better understanding, the relation of number of p-c-Jun positive nuclei between total nuclei number is calculated. For this purpose, a basal p-c-Jun intensity mean is calculated considering the control condition of the assays, set as a threshold. […]
Data of intensity values obtained from p-c-Jun nuclei quantifications in immunofluorescence pictures are analyzed by using two statistic tests: Two-way ANOVA test and One-way ANOVA test.

phospho-c-Jun (Ser 63) = assay: Western blot; format: cell-based, Human; settings: 21/5.25 µM/mM OA/HP-β-CD; 10 µM OA/DMSO
Experimental: (§1) Mv1Lu or MDA-MB-231 cells are seeded and allowed to reach 60% confluence in 10 cm diameter plates. At this time, culture medium containing 10% FBS is replaced by an FBS-free medium, incubating the cells for a 24-hours period. Serum-deprived cells are treated with either OA, OA/HP-β-CD, DMSO, HP-β-CD or 10 ng/ml EGF. After time incubations, cells are harvested, washed twice with ice-cold PBS and lysed with 20 mM TRIS pH 7.5, 150 mM NaCl, 1 mM EDTA, 1.2 mM MgCl2, 0.5%, Nonidet p-40, 1mM DTT, 25 mM NaF and 25 mM β-glycerophosphate supplemented with phosphatase inhibitors (I and II) and protease inhibitors (all from Sigma-Aldrich, St Louis, MO, USA). Total protein amount of all extracts is measured and normalized by Bradford assay (Sigma-Aldrich, St Louis, MO, USA). The extracts are analyzed by SDS-PAGE followed by Western blot (WB) using the indicated antibodies (see Antibodies section). […] For protein quantification, Western pictures in 8-bit format are processed in imaged software. Subsequently, in all Western blot pictures, a lane is stablished for each of the samples. In each lane, the band is selected according to the specific size (kDa) of the protein of interest. For each total protein and their phosphorylated version, each band's intensity peak is plotted, and next, the area under the plot is measured by using "Wand (tracing) tool" of imaged to obtain the intensity value. In order to normalize, obtained intensity values are referred to obtained intensity values of either the unphosphorylated form of the protein (total) or a loading control protein such as β-actin, only if the unphosphorylated form is undetectable (non-available antibody for detecting the unphosphorylated form). […]

[3] = system: phospho-JNK1/2 (Thr 183/Tyr 185); assay: Western blot; format: cell-based, Human; settings: 21/5.25 µM/mM OA/HP-β-CD; 10 µM OA/DMSO
Experimental: as §1

c-Jun = assay: Western blot; format: cell-based, Human; settings: 21/5.25 µM/mM OA/HP-β-CD; 10 µM OA/DMSO
Experimental: as §1

Substance: Oleanolic acid [OA/DMSO]
- number of adhesion foci (FAs density) [1]: greater number of adhesion foci
- size of adhesion foci (FA average size) [1]: small foci
- p-c-Jun in cells at the edge of the wound (immunostaining) ([2]; 6 and 12 hours): promote the up-regulation of this active form of c-Jun
- p-c-Jun fluorescence in the nuclei (quantified) [2]: promoted the expression and activation of this factor
- p-c-Jun (phospho-c-Jun (Ser 63)): stronger stimulation of p-c-Jun at time 1 hour
- p-JNK1/2 [3]: stimulated this kinase at time 1 hours
- total c-Jun levels (c-Jun): stimulated c-Jun overexpression at the early time of 1 h
